Measured values reported in patent US20060069132A1, “Azolecarboxamide herbicides” (priority 2004, published 2006).

Tests used:
[1] = test system: common (oilseed) sunflower; test: Test C pre-/postemergence herbicide test; assay type: in vivo, Helianthus annuus; conditions: for Sunflower plant response rating: Preemergence, scale 0 to 100, 0 no effect, 100 complete control
Summary of the method: (§1)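 Visual ratings on a 0–100 scale (100 = complete control) made versus untreated controls after 12 to 14 greenhouse days. Test chemicals, formulated in surfactant-containing non-phytotoxic solvent, applied preemergence to planted seeds or postemergence to 1- to 4-leaf plants (2 to 18 cm).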

kochia = test: Test C pre-/postemergence herbicide test; assay type: in vivo, Kochia scoparia
Summary of the method: as §1

eastern black nightshade = test: Test C pre-/postemergence herbicide test; assay type: in vivo, Solanum ptycanthum; conditions: for Nightshade plant response rating: Preemergence, scale 0 to 100, 0 no effect, 100 complete control
Summary of the method: as §1

barnyardgrass = test: Test C flooded paddy test; assay type: in vivo, Echinochloa crus-galli; conditions: for Plant response rating, Barnyardgrass: 500 g ai/ha, visual rating after 12 to 14 days
Summary of the method: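 Weeds and wheat were sprayed after emergence, at a height of 2 to 18 cm (1–4 leaves), and paddy barnyardgrass was flooded and treated at two leaves. Assessment took place 12–14 days later in the greenhouse on a 0-to-100 visual control scale. A dash means no result was obtained.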

morningglory = test: Test C pre-/postemergence herbicide test; assay type: in vivo, Ipomoea coccinea; design: key to Plant response rating, Morningglory: 0 = no effect, 100 = complete control
Summary of the method: as §1

giant foxtail = test: Test C pre-/postemergence herbicide test; assay type: in vivo, Setaria faberi
Summary of the method: as §1

rice = test: Test B pre-/postemergence herbicide test; assay type: in vivo, Oryza sativa; conditions: preemergence
Summary of the method: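 Visual rating, 0 (no effect) to 100 (complete control), versus untreated controls after 13–15 d in greenhouse. Pre- and postemergence applications (postemergence plants 2–18 cm, 1–4 leaves); flooded paddy arm at 2-leaf stage. Compounds in non-phytotoxic solvent plus surfactant.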

pigweed = test: Test C pre-/postemergence herbicide test; assay type: in vivo, Amaranthus retroflexus
Summary of the method: as §1

woolly cupgrass = test: Test C pre-/postemergence herbicide test; assay type: in vivo, Eriochloa villosa
Summary of the method: as §1

[2] = 62 g ai/ha, preemergence, scale 0 to 100
[3] = 125 g ai/ha, scale 0 (no effect) to 100 (complete control), visual, 12 to 14 days, preemergence
[4] = Preemergence, 500 g ai/ha, scale 0 to 100, 0 no effect, 100 complete control
[5] = 62 g ai/ha, scale 0 to 100 (0 no effect, 100 complete control)
[6] = 125 g ai/ha, scale of 0 to 100, 0 is no effect, 100 is complete control
[7] = 250 g ai/ha, scale of 0 to 100, 0 is no effect, 100 is complete control
[8] = scale 0 to 100 (0 no effect, 100 complete control)
[9] = 250 g ai/ha, scale 0 to 100 (0 no effect, 100 complete control), visual, 12 to 14 days, preemergence
[10] = 125 g ai/ha, 0 = no effect, 100 = complete control
[11] = 500 g ai/ha, visual rating 0-100, 0 no effect, 100 complete control
[12] = 250 g ai/ha, scale 0-100, preemergence
[13] = 500 g ai/ha, scale 0 to 100 (0 no effect, 100 complete control), visual, 12 to 14 days, preemergence
[14] = Postemergence, 500 g ai/ha, scale 0 to 100
[15] = Postemergence, 250 g ai/ha, scale 0 to 100, 0 no effect, 100 complete control
[16] = postemergence, 125 g ai/ha, scale 0 to 100
[17] = postemergence, 62 g ai/ha, scale 0 to 100
[18] = 125 g ai/ha, scale 0 to 100 (0 no effect, 100 complete control)
[19] = 500 g ai/ha, visual rating, 0 = no effect, 100 = complete control

## CCc1nn(C(C)(C)C)cc1C(=O)Nc1cccc(C(C)=NO)c1 [Compound 188]
[1]; [2]
  Plant response rating, Sunflower: 0
[1]; [3]
  Plant response rating, Sunflower: 0
[1]; 500 g ai/ha
  Sunflower plant response rating: 0
kochia; [2]
  Plant response rating, Kochia: 0
kochia; [3]
  Plant response rating, Kochia: 0
kochia; [4]
  Kochia plant response rating: 95
Eastern black nightshade; [2]
  Plant response rating, Nightshade: 80
Eastern black nightshade; [3]
  Plant response rating, Nightshade: 95
Eastern black nightshade; 500 g ai/ha
  Nightshade plant response rating: 100
barnyardgrass; [5]
  Barnyardgrass plant response rating: 35
barnyardgrass; [6]
  Barnyardgrass plant response rating: 55
barnyardgrass; [7]
  Barnyardgrass plant response rating: 75
barnyardgrass; [8]
  Plant response rating, Barnyardgrass: 85
morningglory; [2]
  Plant response rating, Morningglory: 0
morningglory; [4]
  Morningglory plant response rating: 75
Giant foxtail; [2]
  Plant response rating, Foxtail, Giant: 0
Giant foxtail; [3]
  Plant response rating, Foxtail, Giant: 55
Giant foxtail; [9]
  Plant response rating, Foxtail, Giant: 70
Giant foxtail; [4]
  Foxtail, Giant plant response rating: 100
rice; [10]
  Rice plant response rating (0 to 100 scale): 50
rice; [11]
  Plant response rating, Rice: 70
pigweed; [2]
  Plant response rating, Pigweed: 95
pigweed; [3]
  Plant response rating, Pigweed: 95
pigweed; [4]
  Pigweed plant response rating: 100
Woolly cupgrass; [2]
  Plant response rating, Cupgrass, Woolly: 0
Woolly cupgrass; [3]
  Plant response rating, Cupgrass, Woolly: 60
Woolly cupgrass; [9]
  Plant response rating, Cupgrass, Woolly: 70
Woolly cupgrass; [4]
  Cupgrass, Woolly plant response rating: 75

## CCn1nc(C(C)(C)C)cc1C(=O)Nc1cc(C#N)ccc1F [Compound 140]
[1]; 62 g ai/ha, preemergence
  Plant response rating (0 = no effect, 100 = complete control), Sunflower: 0
[1]; [3]
  Plant response rating, Sunflower: 0
[1]; 500 g ai/ha
  Sunflower plant response rating: 0
kochia; 62 g ai/ha, preemergence
  Plant response rating (0 = no effect, 100 = complete control), Kochia: 70
kochia; [3]
  Plant response rating, Kochia: 75
kochia; [4]
  Kochia plant response rating: 100
Eastern black nightshade; 62 g ai/ha, preemergence
  Plant response rating (0 = no effect, 100 = complete control), Nightshade: 0
Eastern black nightshade; [3]
  Plant response rating, Nightshade: 0
Eastern black nightshade; 500 g ai/ha
  Nightshade plant response rating: 95
barnyardgrass; [5]
  Barnyardgrass plant response rating: 0
barnyardgrass; [6]
  Barnyardgrass plant response rating: 0
barnyardgrass; [7]
  Barnyardgrass plant response rating: 0
barnyardgrass; [8]
  Plant response rating, Barnyardgrass: 15
morningglory; 62 g ai/ha, preemergence
  Plant response rating (0 = no effect, 100 = complete control), Morningglory: 0
morningglory; [3]
  Plant response rating, Morningglory: 0
morningglory; [4]
  Morningglory plant response rating: 0
Giant foxtail; 62 g ai/ha, preemergence
  Plant response rating (0 = no effect, 100 = complete control), Foxtail, Giant: 0
Giant foxtail; [3]
  Plant response rating, Foxtail, Giant: 25
Giant foxtail; [9]
  Plant response rating, Foxtail, Giant: 65
Giant foxtail; [4]
  Foxtail, Giant plant response rating: 85
rice; [11]
  Plant response rating, Rice: 70
rice; 125 g ai/ha, 0 to 100 scale, 0 is no effect, 100 is complete control
  Plant response rating, Rice: 0
pigweed; 62 g ai/ha, preemergence
  Plant response rating (0 = no effect, 100 = complete control), Pigweed: 100
pigweed; [3]
  Plant response rating, Pigweed: 100
pigweed; [4]
  Pigweed plant response rating: 100
Woolly cupgrass; 62 g ai/ha, preemergence
  Plant response rating (0 = no effect, 100 = complete control), Cupgrass, Woolly: 0
Woolly cupgrass; [3]
  Plant response rating, Cupgrass, Woolly: 0
Woolly cupgrass; [9]
  Plant response rating, Cupgrass, Woolly: 0
Woolly cupgrass; [4]
  Cupgrass, Woolly plant response rating: 45

## CCn1nc(C(C)(C)C)cc1C(=O)Nc1cccc(OC(F)(F)C(F)F)c1 [Compound 333]
[1]; [2]
  Plant response rating, Sunflower: 0
[1]; [12]
  Plant response rating, Sunflower: 0
[1]; [13]
  Plant response rating, Sunflower: 0
kochia; [2]
  Plant response rating, Kochia: 80
kochia; [3]
  Plant response rating, Kochia: 100
kochia; [12]
  Plant response rating, Kochia: 100
kochia; [13]
  Plant response rating, Kochia: 100
kochia; [14]
  Kochia plant response rating: 100
kochia; [15]
  Plant response rating, Kochia: 100
kochia; [16]
  Plant response rating, Kochia: 100
kochia; [17]
  Plant response rating, Kochia: 90
Eastern black nightshade; [3]
  Plant response rating, Nightshade: 20
Eastern black nightshade; [12]
  Plant response rating, Nightshade: 98
Eastern black nightshade; [13]
  Plant response rating, Nightshade: 100
barnyardgrass; [5]
  Barnyardgrass plant response rating: 0
barnyardgrass; [18]
  Barnyardgrass plant response rating: 0
barnyardgrass; [7]
  Barnyardgrass plant response rating: 10
barnyardgrass; [8]
  Plant response rating, Barnyardgrass: 20
morningglory; [2]
  Plant response rating, Morningglory: 0
morningglory; [3]
  Plant response rating, Morningglory: 0
morningglory; [12]
  Plant response rating, Morningglory: 0
morningglory; [13]
  Plant response rating, Morningglory: 10
morningglory; [14]
  Morningglory plant response rating: 10
morningglory; [15]
  Plant response rating, Morningglory: 10
morningglory; [16]
  Plant response rating, Morningglory: 0
morningglory; [17]
  Plant response rating, Morningglory: 0
Giant foxtail; [2]
  Plant response rating, Foxtail, Giant: 0
Giant foxtail; [3]
  Plant response rating, Foxtail, Giant: 10
Giant foxtail; [12]
  Plant response rating, Foxtail, Giant: 50
Giant foxtail; [13]
  Plant response rating, Foxtail, Giant: 75
Giant foxtail; [14]
  Foxtail, Giant plant response rating: 10
Giant foxtail; [15]
  Plant response rating, Foxtail, Giant: 10
Giant foxtail; [16]
  Plant response rating, Foxtail, Giant: 5
Giant foxtail; [17]
  Plant response rating, Foxtail, Giant: 5
rice; 125 g ai/ha, 0 is no effect, 100 is complete control
  Plant response rating (0 to 100 scale), Rice: 0
rice; [19]
  Plant response rating, Rice: 0
pigweed; [2]
  Plant response rating, Pigweed: 100
pigweed; [3]
  Plant response rating, Pigweed: 100
pigweed; [12]
  Plant response rating, Pigweed: 100
pigweed; [13]
  Plant response rating, Pigweed: 100
pigweed; [14]
  Pigweed plant response rating: 100
pigweed; [15]
  Plant response rating, Pigweed: 100
pigweed; [16]
  Plant response rating, Pigweed: 100
pigweed; [17]
  Plant response rating, Pigweed: 65
Woolly cupgrass; [2]
  Plant response rating, Cupgrass, Woolly: 0
Woolly cupgrass; [3]
  Plant response rating, Cupgrass, Woolly: 0
Woolly cupgrass; [12]
  Plant response rating, Cupgrass, Woolly: 0
Woolly cupgrass; [13]
  Plant response rating, Cupgrass, Woolly: 30
Woolly cupgrass; [14]
  Cupgrass, Woolly plant response rating: 10
Woolly cupgrass; [15]
  Plant response rating, Cupgrass, Woolly: 5
Woolly cupgrass; [16]
  Plant response rating, Cupgrass, Woolly: 0
Woolly cupgrass; [17]
  Plant response rating, Cupgrass, Woolly: 0

## CCn1nc(C2(C)CC2)cc1C(=O)Nc1cccc(C(=O)N2CC=CC2)c1 [Compound 304]
[1]; [2]
  Plant response rating, Sunflower: 0
[1]; [12]
  Plant response rating, Sunflower: 0
[1]; [13]
  Plant response rating, Sunflower: 5
kochia; [3]
  Plant response rating, Kochia: 80
kochia; [12]
  Plant response rating, Kochia: 85
kochia; [13]
  Plant response rating, Kochia: 100
Eastern black nightshade; [2]
  Plant response rating, Nightshade: 80
Eastern black nightshade; [3]
  Plant response rating, Nightshade: 100
Eastern black nightshade; [12]
  Plant response rating, Nightshade: 100
Eastern black nightshade; [13]
  Plant response rating, Nightshade: 100
barnyardgrass; [5]
  Barnyardgrass plant response rating: 40
barnyardgrass; [18]
  Barnyardgrass plant response rating: 50
barnyardgrass; [7]
  Barnyardgrass plant response rating: 85
barnyardgrass; [8]
  Plant response rating, Barnyardgrass: 95
morningglory; [2]
  Plant response rating, Morningglory: 0
morningglory; [3]
  Plant response rating, Morningglory: 10
morningglory; [12]
  Plant response rating, Morningglory: 10
morningglory; [13]
  Plant response rating, Morningglory: 10
Giant foxtail; [2]
  Plant response rating, Foxtail, Giant: 5
Giant foxtail; [3]
  Plant response rating, Foxtail, Giant: 50
Giant foxtail; [12]
  Plant response rating, Foxtail, Giant: 60
Giant foxtail; [13]
  Plant response rating, Foxtail, Giant: 90
rice; [10]
  Rice plant response rating (0 to 100 scale): 0
rice; [19]
  Plant response rating, Rice: 20
pigweed; [2]
  Plant response rating, Pigweed: 100
pigweed; [3]
  Plant response rating, Pigweed: 100
pigweed; [12]
  Plant response rating, Pigweed: 100
pigweed; [13]
  Plant response rating, Pigweed: 100
Woolly cupgrass; [2]
  Plant response rating, Cupgrass, Woolly: 5
Woolly cupgrass; [3]
  Plant response rating, Cupgrass, Woolly: 10
Woolly cupgrass; [12]
  Plant response rating, Cupgrass, Woolly: 60
Woolly cupgrass; [13]
  Plant response rating, Cupgrass, Woolly: 80
